According to patent EP4772497A1, “POLYMORPHS OF NITROGEN-CONTAINING HETEROCYCLIC COMPOUNDS, AND USES THEREOF” (BNH Research Co., Ltd., priority 2023, dated 2025):

How the values were obtained:
[1] = Competitive equilibrium experiments for crystalline forms A and C (XRPD, DSC); format: physicochemical; settings: forms A and C slurried in acetone, acetonitrile, ethyl acetate, isopropyl acetate, acetone/water (35:65) at 5°C, 25°C, 50°C for 1 week
Protocol: Competitive equilibrium experiments were performed in various solvent systems to determine the relative stability of crystalline forms A and C.
About 15 mg of crystalline form A and 15 mg of crystalline form C were added to 0.2 mL of a saturated solution of each of selected solvents (acetone, acetonitrile, ethyl acetate, isopropyl acetate, and acetone/water (v:v=35:65)) (Table 9). The obtained suspensions were stirred at 5°C, 25°C, and 50°C, respectively, for 1 week. The solid portion (wet cake) was isolated by centrifugal filtration and analyzed by XRPD and DSC, and the results are shown in Figs. 7a to 7f.

[2] = Parallel artificial membrane permeability assay (PAMPA) for BBB permeability; format: in vitro ADME
Protocol: • PAMPA: PMBBB-096 Kit • Assay format: 96-well plate • Reference substance: Imipramine (H) (10 µM) • Test substance concentration: 10 µM • Number of replicates: 3 • Reaction time: 6 hours at 25°C on a shaker (75 - 80 rpm) • Analytical method: LC-MS/MS • Data processing: Pe (cm/s)
The test compounds (crystalline forms A and C) were dissolved in DMSO at a concentration of 10 mM […] to prepare standard solutions. Next, dried brain lipids were resuspended in 600 µL dodecane to prepare a BBB lipid solution in dodecane. Pipetting up and down was repeated (~100 times) until all dried brain lipids were dissolved (vortexing or sonication may be helpful). A 10 µM reaction solution in PBS containing 5% DMSO was prepared.
The experiments were conducted in a 96-well plate using the prepared reaction solution of each test compound and the BBB lipid solution according to the following assay procedure. • 1. 500 µL of a 500 µM test compound solution (prepared by mixing 25 µL of a 10 mM test compound + 475 µL of PBS (pH 7.2) in DMSO) was prepared in a separate centrifuge tube. When a permeability control was used, it was diluted to 500 µM using PBS (prepared by mixing 25 µL of permeability control + 475 µL of PBS (pH 7.2)). • 2. For each test compound and control, a 200 µM equilibrium standard was prepared in a separate tube (by mixing 80 µL of 500 µM test compound or control with 120 µL of PBS (pH 7.2)). […] The absorbance spectrum from 200 nm to 500 nm was measured at 10 nm intervals to determine the peak absorbance of the test compounds. […] The peak absorbances of the high-permeability and low-permeability controls are 250 nm and 270 nm, respectively.
For the compounds and permeability controls, the permeability rate (Pe) was determined using the following equation: Pe = C × −ln(1−(ODA)/(ODE))cm/s [formula]
Here, ODA is the absorbance of the acceptor solution minus the blank, and ODE is the absorbance of the equilibrium standard minus the blank. For each absorbance value, the peak absorbance determined for each test was used. […]

IL-33 = test: Mouse proteome profiling array analysis of somatosensory cortex homogenates; format: in vivo; settings: APP/PS1 mice, 1 mg/kg orally for 14 days, cerebral cortex, vs vehicle-treated control group
Protocol: (§1) To evaluate the efficacy of crystalline form C of the present disclosure in inhibiting amyloid-beta protein accumulation, mouse proteomic profiling array analysis and Bielschowsky silver staining were performed. 15-week-old APP/PS1 mice were used in the experiment, and crystalline form C of the present disclosure (1 mg/kg of BnH-015B) or a vehicle was administered orally.
(§2) Relative levels of mouse cytokines, chemokines, and growth factors were determined using a membrane-based antibody array kit (Proteome Profiler Mouse XL Cytokine Array Kit, ARY028 R&D Systems, Inc., Minneapolis, USA) which features 111 capture antibodies coated in duplicate on a nitrocellulose membrane. Homogenates of the somatosensory cortex of APP/PS1 mice were prepared and tested according to the manufacturer's instructions. The array was detected using an X-ray film (Super RX, Fujifilm, Tokyo, Japan), and the film was read using an Epson scanner (L655 series, Epson, Suwa, Japan), followed by image analysis using ImageJ with the Protein Array Analyzer Macro (National Institutes of Health, Bethesda, MD, USA). […]
(§3) Statistical analysis was performed using GraphPad Prism 9.5.0 software (San Diego, CA, USA). […] All data are expressed as mean ± SEM.

OPN = test: as above; format: in vivo; settings: APP/PS1 mice, 1 mg/kg orally for 14 days, cerebral cortex, vs vehicle-treated control group
Protocol: as §1, §2, §3

PAMPA Pe ([2]; BBB lipid membrane, PBS (pH 7.2)): 11.79 10^-9 cm/sec
SMILES: C[C@@H]1CC[C@H](C(=O)O)CN1C(=O)Cc1ccc(F)cc1Cl [Crystalline form C, (3S,6R)-1-(2-(2-chloro-4-fluorophenyl)acetyl)-6-methylpiperidine-3-carboxylic acid]
relative stability of crystalline forms A and C [1]: most thermodynamically stable crystalline form below 50 °C
BBB permeability, comparison of forms ([2]; PAMPA): superior BBB permeability compared to crystalline form A
expression level of IL-33 (IL-33): significantly increased
OPN expression (OPN): suppressed
